Patent US20050281889A1, “Nutritional supplement for adults” (priority 2004, published 2005)

How the values were obtained:
[1] = in vivo; cited from earlier work
blood lymphocytes = experiment: Zinc dose response: lymphocyte response to mitogen PHA (thymidine uptake, 72 h culture); type: in vivo, human; details: for Lymphocyte response to PHA (stimulation index): adults, age 20-50 years
Experimental: The basic concept underlying the assessment of the most optimum nutrient amounts for a given age group uses the principle of “dose-response graphs”. At least four groups of individuals were provided with various amounts of a given nutrient and their immune responses were measured using established and accepted techniques. The amount of a nutrient that gave the best response was considered the optimum amount. Dose response graphs were determined for all vitamins and trace elements considered essential for human health, particularly immunity.
Data for the dose response chart for zinc in a group of 20 to 50 year old adults is shown in FIG. 1, with the total amount of zinc taken is shown for each group. To determine the magnitude of immune response, an aliquot of blood was withdrawn from each subject in the study, blood lymphocytes were separated, washed and mixed with the mitogen phytohemagglutinin (PHA) in previously determined optimum amount. The optimum amount of PHA used in the experiments was predetermined by a set of dose response graphs using lymphocytes of a healthy donor and four different concentrations of PHA. After culture in a sterile environment for 72 hours, the cells were washed and mixed with radioactive thymidine. The same steps were undertaken in a control sample in which only the culture medium was used, not PHA. The cells were washed and radioactivity determined.
Dietary intake of zinc was calculated based on three 24-hour recalls and by the food frequency questionnaire methods.

Structure (SMILES): Cc1ncc(C[n+]2csc(CCO)c2C)c(N)n1 [Thiamin]
- biologic half-life in the body [1]: about 15 days

Structure (SMILES): [Zn] [zinc]
- immune response (blood lymphocytes; 12 mg of zinc intake, in combination with zinc from a balanced diet): best immune response
- Lymphocyte response to PHA (stimulation index) (blood lymphocytes; supplemental zinc 12 mg): 78
- Lymphocyte response to PHA (stimulation index) (blood lymphocytes; supplemental zinc 25 mg): 48
- Lymphocyte response to PHA (stimulation index) (blood lymphocytes; supplemental zinc 50 mg): 41
